Reference: patent US20100063049A1, “2-CARBOCYCLOAMINO-4-IMIDAZOLYLPYRIMIDINES AS AGENTS FOR THE INHBITION OF CELL PROLIFERATION” (priority 2006, published 2010)

Target: T1, CDK2/Cyclin E (Homo sapiens, UniProt P24941)
T1 construct: The open reading frames of CDK2 and Cyclin E were isolated by reverse transcriptase-PCR; made in house; host or cells: Spodoptera frugiperda SF21 insect cells (baculovirus co-infection); GST-Rb substrate made in E. coli BL21(DE3) pLysS
Assay: in vitro kinase assay (Scintillation Proximity Assay), incorporation of [γ-33-P]-ATP into GST-Rb
Format: biochemical
Settings: CDK2/Cyclin E partially-purified enzyme, GST-Rb substrate, 0.2 μM ATP, room temperature 60 mins; read-out: CDK2 inhibitory activity IC50
Method: The compounds were tested in an in vitro kinase assay in 96 well format using Scintillation Proximity Assay (SPA—obtained from Amersham) for measuring incorporation of [γ-33-P]-Adenosine Triphosphate into a test substrate (GST-Retinoblastoma protein; GST-Rb). In each well was placed the compound to be tested (diluted in DMSO and water to correct concentrations) and in control wells either roscovitine as an inhibitor control or DMSO as a positive control. […]
The plates were sealed with Topseal-S plate sealers, left for two hrs then spun at 2500 rpm, 1124×g., for 5 mins. The plates were read on a Topcount for 30 seconds per well. […]
E. coli paste was resuspended in 10 ml/g of NETN buffer (50 mM Tris pH 7.5, 120 mM NaCl, 1 mM EDTA, 0.5% v/v NP-40, 1 mM PMSF, 1 ug/ml leupeptin, 1 ug/ml aprotinin and 1 ug/ml pepstatin) and sonicated for 2×45 seconds per 100 ml homogenate. […] The final product was analysed by Sodium Dodeca Sulfate (SDS) PAGE (Polyacrylamide gel) using 8-16% Tris-Glycine gels (Novex, San Diego, USA).
The open reading frames of CDK2 and Cyclin E were isolated by reverse transcriptase-PCR using HeLa cell and activated T cell mRNA as a template and cloned into the insect expression vector pVL1393 (obtained from Invitrogen 1995 catalogue number: V1392-20). […]

IC50: 159 nM
SMILES: Cc1ncc(-c2ccnc(N[C@H]3CC[C@H](N(C)C)CC3)n2)n1C(C)C [Example 4, trans-N′,N′-Dimethyl-N-[4-(2-methyl-3-propan-2-yl-imidazol-4-yl)pyrimidin-2-yl]cyclohexane-1,4-diamine]
